According to patent US9567302B2, “Carbamate compounds and of making and using same” (Abide Therapeutics, Inc., priority 2012, dated 2017):

Columns and labels:
Type in all cases: biochemical
Design in all cases: from tissue
MAGL = target: T1, MAGL (Mus musculus, UniProt O35678); test: In vitro competitive ABPP, % inhibition at fixed concentration, MAGL
T1 sequence (O35678 1-303): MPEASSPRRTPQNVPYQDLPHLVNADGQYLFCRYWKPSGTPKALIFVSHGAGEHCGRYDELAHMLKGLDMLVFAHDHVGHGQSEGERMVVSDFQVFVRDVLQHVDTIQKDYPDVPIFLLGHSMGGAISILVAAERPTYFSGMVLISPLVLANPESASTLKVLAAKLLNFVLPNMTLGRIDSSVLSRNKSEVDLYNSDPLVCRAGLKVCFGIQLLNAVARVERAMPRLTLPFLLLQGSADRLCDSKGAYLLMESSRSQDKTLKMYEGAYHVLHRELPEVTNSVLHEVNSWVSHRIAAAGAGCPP
Method: (§1) In Vitro Competitive Activity-Based Protein Profiling.
(§2) Proteomes (mouse brain membrane fraction or cell lysates) (50 μL, 1.0 mg/ml total protein concentration) were preincubated with varying concentrations of inhibitors at 37° C. After 30 min, FP-Rh (1.0 μL, 50 μM in DMSO) was added and the mixture was incubated for another 30 min at 37° C. Reactions were quenched with SDS loading buffer (50 μL—4×) and run on SDS-PAGE. Following gel imaging, serine hydrolase activity was determined by measuring fluorescent intensity of gel bands corresponding to MAGL, ABHD6 and FAAH using ImageJ 1.43u software.

FAAH = target: T2, FAAH (Mus musculus, UniProt O08914); test: In vitro competitive ABPP, % inhibition at fixed concentration, FAAH
T2 sequence (O08914 1-579): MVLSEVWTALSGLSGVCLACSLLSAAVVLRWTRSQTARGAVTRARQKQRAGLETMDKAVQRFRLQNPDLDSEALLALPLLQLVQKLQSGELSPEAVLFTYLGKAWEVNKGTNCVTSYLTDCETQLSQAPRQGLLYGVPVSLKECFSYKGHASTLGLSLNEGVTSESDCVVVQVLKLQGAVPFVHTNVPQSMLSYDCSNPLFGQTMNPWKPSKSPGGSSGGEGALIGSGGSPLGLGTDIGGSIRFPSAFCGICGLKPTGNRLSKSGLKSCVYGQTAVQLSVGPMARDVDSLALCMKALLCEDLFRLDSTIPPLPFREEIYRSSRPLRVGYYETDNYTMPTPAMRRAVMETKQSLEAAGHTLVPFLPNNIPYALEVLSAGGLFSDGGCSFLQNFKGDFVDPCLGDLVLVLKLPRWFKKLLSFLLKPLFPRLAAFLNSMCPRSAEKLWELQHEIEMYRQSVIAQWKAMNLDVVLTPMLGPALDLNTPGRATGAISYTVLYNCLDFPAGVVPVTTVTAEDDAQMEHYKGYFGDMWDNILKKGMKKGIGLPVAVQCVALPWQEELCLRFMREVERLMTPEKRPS
Method: as §1, §2

ABHD6 = target: T3, ABHD6 (Mus musculus, UniProt Q8R2Y0); test: In vitro competitive ABPP, % inhibition at fixed concentration, ABHD6
T3 sequence (Q8R2Y0 1-336): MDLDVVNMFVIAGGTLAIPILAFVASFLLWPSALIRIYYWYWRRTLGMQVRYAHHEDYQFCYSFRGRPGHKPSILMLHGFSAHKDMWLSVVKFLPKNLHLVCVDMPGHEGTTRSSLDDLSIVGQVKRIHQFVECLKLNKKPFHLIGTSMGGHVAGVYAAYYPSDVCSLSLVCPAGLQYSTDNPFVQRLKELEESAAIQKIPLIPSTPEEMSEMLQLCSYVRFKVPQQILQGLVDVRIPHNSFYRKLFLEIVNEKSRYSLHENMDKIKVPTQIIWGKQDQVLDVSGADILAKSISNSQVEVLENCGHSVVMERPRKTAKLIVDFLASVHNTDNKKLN
Method: as §1, §2

Row | Structure (SMILES) | inhibition at 1 µM (MAGL) [%] | inhibition at 1 µM (FAAH) [%] | inhibition at 1 µM (ABHD6) [%] | inhibition at 10 µM (MAGL) [%] | inhibition at 10 µM (FAAH) [%] | inhibition at 10 µM (ABHD6) [%]
1 | O=C(ON1C(=O)CCC1=O)N1CCN(Cc2cc(-c3ccccc3)on2)CC1 [Example 137, 2,5-Dioxopyrrolidin-1-yl 4-((5-phenylisoxazol-3-yl)methyl)piperazine-1-carboxylate] | 25 to 75 | < 25 | 25 to 75 |  |  | 
2 | Cn1cc(CN2CCN(C(=O)ON3C(=O)CCC3=O)CC2)c(-c2ccccc2Cl)n1 [Example 140, 2,5-Dioxopyrrolidin-1-yl 4-{[3-(2-chlorophenyl)-1-methyl-1H-pyrazol-4-yl]methyl}piperazine-1-carboxylate] | 25 to 75 | < 25 | 25 to 75 |  |  | 
3 | CC(C)n1cc(CN2CCN(C(=O)ON3C(=O)CCC3=O)CC2)c(-c2ccccc2)n1 [Example 141, 2,5-Dioxopyrrolidin-1-yl 4-{[3-phenyl-1-(propan-2-yl)-1H-pyrazol-4-yl]methyl}piperazine-1-carboxylate] | 25 to 75 | < 25 | 25 to 75 |  |  | 
4 | CC(C)n1cc(CN2CCN(C(=O)ON3C(=O)CCC3=O)CC2)c(-c2ccccc2Cl)n1 [Example 142, 2,5-Dioxopyrrolidin-1-yl 4-{[3-(2-chlorophenyl)-1-(propan-2-yl)-1H-pyrazol-4-yl]methyl}piperazine-1-carboxylate] | 25 to 75 | < 25 | 25 to 75 |  |  | 
5 | Cc1cc(CN2CCN(C(=O)ON3C(=O)CCC3=O)CC2)n(C(C)C)n1 [Example 146, 2,5-Dioxopyrrolidin-1-yl 4-{[3-methyl-1-(propan-2-yl)-1H-pyrazol-5-yl]methyl}piperazine-1-carboxylate] | 25 to 75 | < 25 | 25 to 75 |  |  | 
6 | O=C(ON1C(=O)CCC1=O)N1CCN(Cc2cnc3ccccn23)CC1 [Example 147, 2,5-Dioxopyrrolidin-1-yl 4-(imidazo[1,2-a]pyridin-3-ylmethyl)piperazine-1-carboxylate] | < 25 | < 25 | < 25 |  |  | 
7 | O=C(ON1C(=O)CCC1=O)N1CCN(C(c2ccc3c(c2)OC(F)(F)O3)c2ccc3c(c2)OC(F)(F)O3)CC1 [Example 150, 2,5-Dioxopyrrolidin-1-yl 4-[bis(2,2-difluoro-2H-1,3-benzodioxol-5-yl)methyl]piperazine-1-carboxylate] |  |  |  | > 75 | < 25 | 25 to 75
8 | Cn1ncc2cc(C(c3ccc4c(cnn4C)c3)N3CCN(C(=O)ON4C(=O)CCC4=O)CC3)ccc21 [Example 154, 2,5-dioxopyrrolidin-1-yl 4-(bis(1-methyl-1H-indazol-5-yl)methyl)piperazine-1-carboxylate] | 25 to 75 | < 25 | 25 to 75 |  |  | 
9 | O=C(ON1C(=O)CCC1=O)N1CCN(C(c2cccnc2)c2cccnc2)CC1 [Example 155, 2,5-Dioxopyrrolidin-1-yl 4-(di(pyridin-3-yl)methyl)piperazine-1-carboxylate] | 25 to 75 | < 25 | < 25 |  |  | 
10 | O=C(ON1C(=O)CCC1=O)N1CCN(C(c2ccc3c(c2)OCO3)c2ccc3c(c2)OCO3)CC1 [Example 156, 2,5-Dioxopyrrolidin-1-yl 4-[bis(2H-1,3-benzodioxol-5-yl)methyl]piperazine-1-carboxylate] | 25 to 75 | < 25 | 25 to 75 |  |  | 
11 | O=C(ON1C(=O)CCC1=O)N1CCN(C(c2ccc3c(c2)COC3)c2ccc3c(c2)COC3)CC1 [Example 157, 2,5-Dioxopyrrolidin-1-yl 4-[bis(1,3-dihydro-2-benzofuran-5-yl)methyl]piperazine-1-carboxylate] | 25 to 75 | < 25 | 25 to 75 |  |  | 
12 | O=C(ON1C(=O)CCC1=O)N1CCC(C(O)(c2ccc3c(c2)COC3)c2ccc3c(c2)COC3)CC1 [Example 158, 2,5-Dioxopyrrolidin-1-yl 4-[bis(1,3-dihydro-2-benzofuran-5-yl)(hydroxy)methyl]piperidine-1-carboxylate] | 25 to 75 | < 25 | < 25 |  |  | 
13 | Cc1cc(-c2ccc(CN3CCN(C(=O)ON4C(=O)CCC4=O)CC3)c(C)c2)ccn1 [Example 159, 2,5-Dioxopyrrolidin-1-yl 4-{[2-methyl-4-(2-methylpyridin-4-yl)phenyl]methyl}piperazine-1-carboxylate] | 25 to 75 | < 25 | 25 to 75 |  |  | 
14 | O=C(ON1C(=O)CCC1=O)N1CCN(Cc2ccc(-c3cccc(F)c3)cc2F)CC1 [Example 162, 2,5-Dioxopyrrolidin-1-yl 4-{[2-fluoro-4-(3-fluorophenyl)phenyl]methyl}piperazine-1-carboxylate] | > 75 | < 25 | > 75 |  |  | 
15 | Cc1cccc(-c2ccc(CN3CCN(C(=O)ON4C(=O)CCC4=O)CC3)c(C)c2)c1 [Example 163, 2,5-Dioxopyrrolidin-1-yl 4-{[2-methyl-4-(3-methylphenyl)phenyl]methyl}piperazine-1-carboxylate] | 25 to 75 | < 25 | 25 to 75 |  |  | 
16 | O=C(ON1C(=O)CCC1=O)N1CCN(Cc2ccc(-c3ccccc3)cc2F)CC1 [Example 164, 2,5-Dioxopyrrolidin-1-yl 4-[(2-fluoro-4-phenylphenyl)methyl]piperazine-1-carboxylate] | > 75 | < 25 | > 75 |  |  | 
17 | Cc1cc(-c2ccc(CN3CCN(C(=O)ON4C(=O)CCC4=O)CC3)c(F)c2)ccn1 [Example 166, 2,5-Dioxopyrrolidin-1-yl 4-{[2-fluoro-4-(2-methylpyridin-4-yl)phenyl]methyl}piperazine-1-carboxylate] | 25 to 75 | < 25 | > 75 |  |  | 
18 | COc1cc(-c2ccccc2)ccc1CN1CCN(C(=O)ON2C(=O)CCC2=O)CC1 [Example 167, 2,5-Dioxopyrrolidin-1-yl 4-[(2-methoxy-4-phenylphenyl)methyl]piperazine-1-carboxylate] | > 75 | < 25 | 25 to 75 |  |  | 
19 | O=C(ON1C(=O)CCC1=O)N1CCN(Cc2ccc(-c3cccc(F)c3)cn2)CC1 [Example 168, 2,5-Dioxopyrrolidin-1-yl 4-{[5-(3-fluorophenyl)pyridin-2-yl]methyl}piperazine-1-carboxylate] | 25 to 75 | < 25 | 25 to 75 |  |  | 
20 | Cc1cccc(-c2ccc(CN3CCN(C(=O)ON4C(=O)CCC4=O)CC3)c(Oc3ccccc3)c2)c1 [Example 169, 2,5-Dioxopyrrolidin-1-yl 4-{[4-(3-methylphenyl)-2-phenoxyphenyl]methyl}piperazine-1-carboxylate] | 25 to 75 | < 25 | > 75 |  |  | 
21 | Cc1cc(-c2cccnc2C)ccc1CN1CCN(C(=O)ON2C(=O)CCC2=O)CC1 [Example 170, 2,5-Dioxopyrrolidin-1-yl 4-{[2-methyl-4-(2-methylpyridin-3-yl)phenyl]methyl}piperazine-1-carboxylate] | 25 to 75 | < 25 | 25 to 75 |  |  | 
22 | Cc1cc(-c2ccncc2C)ccc1CN1CCN(C(=O)ON2C(=O)CCC2=O)CC1 [Example 171, 2,5-Dioxopyrrolidin-1-yl 4-{[2-methyl-4-(3-methylpyridin-4-yl)phenyl]methyl}piperazine-1-carboxylate] | 25 to 75 | < 25 | 25 to 75 |  |  | 
23 | Cc1cc(-c2cccnc2)ccc1CN1CCN(C(=O)ON2C(=O)CCC2=O)CC1 [Example 172, 2,5-Dioxopyrrolidin-1-yl 4-{[2-methyl-4-(pyridin-3-yl)phenyl]methyl}piperazine-1-carboxylate] | 25 to 75 | < 25 | 25 to 75 |  |  | 
